Assay results published in ChEMBL document CHEMBL1201862, “PubChem BioAssay data set” (2004).
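Briefly, cells in 96-well plates were exposed to five compound concentrations for 48 h, and endpoints were estimated by linear interpolation. GI50 = concentration required for 50% inhibition of growth.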 Active and inactive are the calls of the source. No stated cut-off is given here; in the data, active = GI50 up to about 1.1 µM and inactive = higher.

Columns and labels:
Assay in all cases: NCI anticancer screen, dose series, 48 h
OVCAR-8 = tested on: OVCAR-8
ACHN = tested on: ACHN
M14 = tested on: M14
HCT-15 = tested on: HCT-15
OVCAR-5 = tested on: OVCAR-5
CCRF-CEM = tested on: CCRF-CEM
COLO 205 = tested on: COLO 205
SNB-75 = tested on: SNB-75
HOP-62 = tested on: HOP-62
UACC-257 = tested on: UACC-257
OVCAR-3 = tested on: OVCAR-3
NCI-H226 = tested on: NCI-H226
HOP-92 = tested on: HOP-92
SF-268 = tested on: SF-268
NCI-H23 = tested on: NCI-H23
HL-60 = tested on: HL-60
CAKI-1 = tested on: CAKI-1

Row | Structure (SMILES) | GI50 (OVCAR-8) | GI50 (ACHN) | GI50 (M14) | GI50 (HCT-15) [µM] | GI50 (OVCAR-5) | GI50 (CCRF-CEM) | GI50 (COLO 205) | GI50 (SNB-75) | GI50 (HOP-62) | GI50 (UACC-257) | GI50 (OVCAR-3) | GI50 (NCI-H226) | GI50 (HOP-92) | GI50 (SF-268) | GI50 (NCI-H23) | GI50 (HL-60) | GI50 (CAKI-1)
1 | N#CC(C(=N/NC(N)=S)/C(=N/NC(N)=S)C(C#N)c1ccc(Cl)cc1)c1ccc(Cl)cc1 (stereo unspecified) | 53.8 µM (inactive) | > 100 µM (inactive) | > 100 µM (inactive) | 83.8 | > 100 µM (inactive) | 22.6 µM (inactive) | > 100 µM (inactive) | 31.3 µM (inactive) | > 100 µM (inactive) | > 100 µM (inactive) | 80 µM (inactive) | > 100 µM (inactive) | > 100 µM (inactive) | > 100 µM (inactive) | 65.5 µM (inactive) |  | 
2 | [N-]=[N+]=Nc1cc(=O)n(-c2ccccc2)c2ccccc12 | > 100 µM (inactive) | > 100 µM (inactive) | > 100 µM (inactive) | > 100 | > 100 µM (inactive) | > 100 µM (inactive) | > 100 µM (inactive) | 70.8 µM (inactive) | > 100 µM (inactive) | > 100 µM (inactive) |  | > 100 µM (inactive) |  | > 100 µM (inactive) | > 100 µM (inactive) | > 100 µM (inactive) | > 100 µM (inactive)
3 | NNC(=S)N/N=C/C(=C/Nc1ccccc1)[N+](=O)[O-] | > 100 µM (inactive) | > 100 µM (inactive) | > 100 µM (inactive) |  | > 100 µM (inactive) |  | > 100 µM (inactive) | > 100 µM (inactive) | > 100 µM (inactive) | > 100 µM (inactive) | > 100 µM (inactive) | > 100 µM (inactive) | > 100 µM (inactive) | > 100 µM (inactive) | > 100 µM (inactive) | > 100 µM (inactive) | > 100 µM (inactive)
4 | CCC(/C(=N\Nc1c(Cl)cc(Cl)cc1Cl)c1ccccc1)n1ccnc1C (stereo unspecified) | 12.9 µM (inactive) | 5.52 µM (inactive) | 13.3 µM (inactive) | 10.5 | 9.04 µM (inactive) | 13 µM (inactive) | 11.6 µM (inactive) | 14.6 µM (inactive) |  | 14.5 µM (inactive) | 5.82 µM (inactive) | 15.2 µM (inactive) | 4.06 µM (inactive) | 17.2 µM (inactive) | 10.7 µM (inactive) | 3.82 µM (inactive) | 11 µM (inactive)
5 | O=c1c2cc(Br)ccc2nc(-c2ccccc2)n1NCC1(O)OCC(O)C(O)C1O (stereo unspecified) | > 100 µM (inactive) | > 100 µM (inactive) | > 100 µM (inactive) | > 100 | > 100 µM (inactive) | 40.2 µM (inactive) | > 100 µM (inactive) | > 100 µM (inactive) | > 100 µM (inactive) | > 100 µM (inactive) | 81.8 µM (inactive) | > 100 µM (inactive) |  | > 100 µM (inactive) | > 100 µM (inactive) | 26.2 µM (inactive) | > 100 µM (inactive)
6 | OCC(O)C(OC1OC(CO)C(O)C(O)C1O)c1nn(-c2ccccc2)c2nc3cc(Cl)c(Cl)cc3cc12 (stereo unspecified) | > 100 µM (inactive) | > 100 µM (inactive) | > 100 µM (inactive) | > 100 | > 100 µM (inactive) | > 100 µM (inactive) |  | > 100 µM (inactive) | > 100 µM (inactive) | > 100 µM (inactive) | > 100 µM (inactive) |  |  | > 100 µM (inactive) | > 100 µM (inactive) |  | 
7 | COC(=O)C(=O)C(C(=O)C(=O)Nc1cc(Cl)c(Cl)cc1Cl)c1nc2ccc([N+](=O)[O-])cc2nc1O (stereo unspecified) | > 100 µM (inactive) | > 100 µM (inactive) | > 100 µM (inactive) | > 100 | > 100 µM (inactive) | > 100 µM (inactive) | > 100 µM (inactive) |  |  | > 100 µM (inactive) |  | > 100 µM (inactive) |  | > 100 µM (inactive) | > 100 µM (inactive) |  | 60.8 µM (inactive)
8 | CCCCCCCCCCCCCP(=O)(O)O | > 100 µM (inactive) | > 100 µM (inactive) | > 100 µM (inactive) | > 100 | > 100 µM (inactive) | > 100 µM (inactive) | > 100 µM (inactive) | 23.2 µM (inactive) | > 100 µM (inactive) | > 100 µM (inactive) | > 100 µM (inactive) | > 100 µM (inactive) | > 100 µM (inactive) | > 100 µM (inactive) | > 100 µM (inactive) | > 100 µM (inactive) | 
9 | CNC(=S)NC(=S)N(C)C | 4.94 µM (inactive) | > 100 µM (inactive) | > 100 µM (inactive) | > 100 |  |  |  | > 100 µM (inactive) | > 100 µM (inactive) | > 100 µM (inactive) | 3.18 µM (inactive) | > 100 µM (inactive) | > 100 µM (inactive) | > 100 µM (inactive) | 0.692 µM (active) | 3.42 µM (inactive) | > 100 µM (inactive)
